Experimental data from PubChem BioAssay AID248 (DTP/NCI, 2004).
Several values for one entry are separate records, joined by “and”; a condition that tells them apart may be missing. Equal values may be shown once. Toxic doses and inconclusive results are not listed. No stated cut-off is given here; in the data, active means T/C of 150% or more; inactive means T/C below 125%.

System: L1210 leukemia ip in BDF1 mice, survival T/C
Assay: NCI In Vivo Anticancer Drug Screen. Data for tumor model L1210 Leukemia (intraperitoneal) in B6D2F1 (BDF1) mice
Settings: endpoint: mean survival time, higher = longer survival
Summary of the method: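 Tumor was transplanted into mice, which were then dosed with test compound or vehicle alone. Survival was recorded for each group, and the treated figure was expressed relative to the control figure.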

[1] = dose: 100.0 mg/kg/injection, schedule: Q01DX001 (ip), vehicle: saline
[2] = dose: 200.0 mg/kg/injection, schedule: Q01DX001 (ip), vehicle: saline
[3] = dose: 400.0 mg/kg/injection, schedule: Q01DX001 (ip), vehicle: saline
[4] = dose: 10.0 mg/kg/injection, schedule: Q01DX001 (ip), vehicle: saline
[5] = dose: 20.0 mg/kg/injection, schedule: Q01DX001 (ip), vehicle: saline
[6] = dose: 100.0 mg/kg/injection, schedule: Q04DX002 (ip), vehicle: saline with Tween-80
[7] = dose: 200.0 mg/kg/injection, schedule: Q04DX002 (ip), vehicle: saline with Tween-80
[8] = dose: 400.0 mg/kg/injection, schedule: Q04DX002 (ip), vehicle: saline with Tween-80
[9] = dose: 100.0 mg/kg/injection, schedule: Q01DX001 (ip), vehicle: carboxymethylcellulose (CMC)
[10] = dose: 200.0 mg/kg/injection, schedule: Q01DX001 (ip), vehicle: carboxymethylcellulose (CMC)
[11] = dose: 400.0 mg/kg/injection, schedule: Q01DX001 (ip), vehicle: carboxymethylcellulose (CMC)
[12] = dose: 25.0 mg/kg/injection, schedule: Q01DX009 (ip), vehicle: Klucel (hydroxypropylcellulose) (HPC)
[13] = dose: 50.0 mg/kg/injection, schedule: Q01DX009 (ip), vehicle: Klucel (hydroxypropylcellulose) (HPC)
[14] = dose: 100.0 mg/kg/injection, schedule: Q01DX009 (ip), vehicle: saline with Tween-80
[15] = dose: 200.0 mg/kg/injection, schedule: Q01DX009 (ip), vehicle: saline with Tween-80
[16] = dose: 400.0 mg/kg/injection, schedule: Q01DX009 (ip), vehicle: saline with Tween-80
[17] = dose: 100.0 mg/kg/injection, schedule: Q04DX003 (ip), vehicle: saline with Tween-80
[18] = dose: 200.0 mg/kg/injection, schedule: Q04DX003 (ip), vehicle: saline with Tween-80
[19] = dose: 100.0 mg/kg/injection, schedule: Q04DX003 (ip), vehicle: other
[20] = dose: 200.0 mg/kg/injection, schedule: Q04DX003 (ip), vehicle: other
[21] = dose: 400.0 mg/kg/injection, schedule: Q04DX003 (ip), vehicle: other

Measured: T/C

CCN1C=C/C(=C/c2cc3scc(-c4ccccc4)[n+]3c3ccccc23)c2ccccc21
inactive: dose: 0.01 mg/kg/injection, schedule: Q04DX003 (ip), vehicle: saline with Tween-80 108 % of control | dose: 0.02 mg/kg/injection, schedule: Q04DX003 (ip), vehicle: saline with Tween-80 98 % of control | dose: 0.04 mg/kg/injection, schedule: Q04DX003 (ip), vehicle: saline with Tween-80 93 % of control

Cc1cc2nc(CCl)[nH]c2cc1C
inactive: dose: 50.0 mg/kg/injection, schedule: Q01DX001 (ip), vehicle: saline 106 % of control | [1] 108 % of control | [2] 112 % of control

C=CCN(CC=C)c1ncnc2[nH]ncc12
inactive: dose: 7.0 mg/kg/injection, schedule: Q01DX015 (ip), vehicle: carboxymethylcellulose (CMC) 91 % of control | dose: 16.0 mg/kg/injection, schedule: Q01DX015 (ip), vehicle: carboxymethylcellulose (CMC) 97 % of control | dose: 32.0 mg/kg/injection, schedule: Q01DX015 (ip), vehicle: carboxymethylcellulose (CMC) 93 % of control | dose: 62.0 mg/kg/injection, schedule: Q01DX015 (ip), vehicle: carboxymethylcellulose (CMC) 106 % of control | [1] 109 % of control | dose: 125.0 mg/kg/injection, schedule: Q01DX015 (ip), vehicle: carboxymethylcellulose (CMC) 89 % of control | [2] 101 % of control | [3] 93 % of control

CN(C)c1ccc(I)cc1
inactive: dose: 25.0 mg/kg/injection, schedule: Q01DX001 (ip), vehicle: saline with Tween-80 107 % of control | dose: 50.0 mg/kg/injection, schedule: Q01DX001 (ip), vehicle: saline with Tween-80 110 % of control

CC1(C)N=C(N)N=C(N)N1c1cccc(OCCOc2cccc([N+](=O)[O-])c2)c1
inactive: dose: 5.0 mg/kg/injection, schedule: Q01DX001 (ip), vehicle: saline 105 % of control | [4] 102 % of control | [5] 103 % of control | dose: 40.0 mg/kg/injection, schedule: Q01DX001 (ip), vehicle: saline 100 % of control | dose: 80.0 mg/kg/injection, schedule: Q01DX001 (ip), vehicle: saline 100 % of control

N#C/C(N)=C(/C#N)N=Cc1ccccc1
inactive: dose: 100.0 mg/kg/injection, schedule: Q01DX001 (ip), vehicle: Klucel (hydroxypropylcellulose) (HPC) 97 % of control | dose: 200.0 mg/kg/injection, schedule: Q01DX001 (ip), vehicle: Klucel (hydroxypropylcellulose) (HPC) 98 % of control | dose: 400.0 mg/kg/injection, schedule: Q01DX001 (ip), vehicle: Klucel (hydroxypropylcellulose) (HPC) 98 % of control

CCC(CC)N(C)C(C)(C)CO
inactive: dose: 100.0 mg/kg/injection, schedule: Q04DX003 (ip), vehicle: saline sonified 90 % of control | dose: 200.0 mg/kg/injection, schedule: Q04DX003 (ip), vehicle: saline sonified 87 % of control

O=C1c2cc(-c3ccccc3)ccc2C(c2ccccc2)C1NC1CCCCC1 (stereo not drawn)
inactive: dose: 37.5 mg/kg/injection, schedule: Q01DX001 (ip), vehicle: Klucel (hydroxypropylcellulose) (HPC) 89 % of control | dose: 75.0 mg/kg/injection, schedule: Q01DX001 (ip), vehicle: Klucel (hydroxypropylcellulose) (HPC) 89 % of control | dose: 150.0 mg/kg/injection, schedule: Q01DX001 (ip), vehicle: Klucel (hydroxypropylcellulose) (HPC) 89 % of control

CN(C)C(=O)Nc1ccc(Cl)cc1Cl
inactive: [6] 98 % of control | [7] 110 % of control | [8] 121 % of control

COC1OC(COC(C)=O)C(OC(C)=O)C1OC(C)=O (stereo not drawn)
inactive: [1] 102 % of control | [2] 104 % of control | [3] 93 % of control

CCCCC(O)(C(C)C)C(C)C
inactive: [9] 102 % of control | [10] 98 % of control | [11] 98 % of control

CN1CCCC(OC(=O)c2cc3ccccc3s2)C1 (stereo not drawn)
inactive: [9] 101 % of control | [10] 106 % of control | [11] 98 % of control

Cc1ccc(CNC(=S)NC2CCCCC2)cc1C
inactive: [12] 97 % of control | [13] 93 % of control | dose: 100.0 mg/kg/injection, schedule: Q01DX009 (ip), vehicle: Klucel (hydroxypropylcellulose) (HPC) 93 % of control

CCC1(CC)OC2=C(CC(C#N)(C#N)C(C#N)(C#N)C2)O1
inactive: dose: 5.0 mg/kg/injection, schedule: Q01DX009 (ip), vehicle: Klucel (hydroxypropylcellulose) (HPC) 104 % of control | [4] 102 % of control | dose: 10.0 mg/kg/injection, schedule: Q01DX009 (ip), vehicle: Klucel (hydroxypropylcellulose) (HPC) 105 % of control | [5] 89 % of control | dose: 20.0 mg/kg/injection, schedule: Q01DX009 (ip), vehicle: Klucel (hydroxypropylcellulose) (HPC) 102 % of control

CCC(=O)c1cc([N+](=O)[O-])ccc1NC(C)=O
inactive: [14] 97 % of control | [15] 94 % of control | [16] 94 % of control

CC(C)(C)[Si](C)(C)OC1CCP(C)(=S)CC1 (stereo not drawn)
inactive: [6] 98 % of control | [7] 91 % of control | [8] 95 % of control

CC(=O)CC(C)(C)N
inactive: [17] 94 % of control | [18] 86 % of control

Cc1nnnn1C12CC3CC(CC(C3)C1)C2
inactive: dose: 18.8 mg/kg/injection, schedule: Q01DX001 (ip), vehicle: saline 110 % of control | dose: 37.5 mg/kg/injection, schedule: Q01DX001 (ip), vehicle: saline 100 % of control | dose: 75.0 mg/kg/injection, schedule: Q01DX001 (ip), vehicle: saline 105 % of control

COc1ccc(C(=O)NC(=S)Nc2ccc(CCO)cc2)cc1
inactive: [14] 98 % of control and 101 % of control | [6] 98 % of control | [17] 96 % of control | [15] 101 % of control and 102 % of control | [7] 100 % of control | [18] 94 % of control | [16] 94 % of control and 104 % of control | [8] 98 % of control | dose: 400.0 mg/kg/injection, schedule: Q04DX003 (ip), vehicle: saline with Tween-80 92 % of control

CC(C)(C)C1=CC(=C(Cl)Cl)C=C(C(C)(C)C)C1=O
inactive: [19] 97 % of control | [20] 98 % of control | [21] 93 % of control

O=[N+]([O-])/C=C/C(Cl)(Cl)Cl
inactive: dose: 6.25 mg/kg/injection, schedule: Q01DX009 (ip), vehicle: Klucel (hydroxypropylcellulose) (HPC) 101 % of control | dose: 12.5 mg/kg/injection, schedule: Q01DX009 (ip), vehicle: Klucel (hydroxypropylcellulose) (HPC) 108 % of control | [12] 97 % of control | [13] 95 % of control

CC(O)C[N+](=O)[O-] (stereo not drawn)
inactive: dose: 50.0 mg/kg/injection, schedule: Q01DX009 (ip), vehicle: saline 103 % of control | dose: 100.0 mg/kg/injection, schedule: Q01DX009 (ip), vehicle: saline 98 % of control | dose: 200.0 mg/kg/injection, schedule: Q01DX009 (ip), vehicle: saline 106 % of control

C/C(=C\C(=O)O)Cc1ccccc1 (tested in a mixture with another compound)
inactive: dose: 50.0 mg/kg/injection, schedule: Q04DX003 (ip), vehicle: other 106 % of control | [19] 115 % of control | [20] 114 % of control | [21] 103 % of control
